{
  "source": "paper PMC10341698",
  "about": "“Identification of Anti-Influenza A Compounds Inhibiting the Viral Non-Structural Protein 1 (NS1) Using a Type I Interferon-Driven Screening Strategy” (International Journal of Molecular Sciences, 2023)",
  "key": {"NS1": {"tested_on": "NS1", "conditions": "cited from earlier work"}, "PKR mRNA": {"tested_on": "PKR mRNA", "assay": "qRT-PCR of PKR mRNA in infected A549 cells", "assay_type": "cell-based, human", "conditions": "A/PR/8/34(H1N1)-infected A549 cells, 24 h p.i., normalized with GAPDH and HAU"}, "[1]": {"tested_on": "influenza virus A/PR/8/34(H1N1)", "conditions": "A549 cells; for reduction of viral replication: 50 µM, 3 h before infection, MOI 0.1, 24 h p.i., HAU"}, "[2]": {"tested_on": "IFN-β promoter luciferase reporter", "assay_type": "cell-based, human"}, "IFN-β mRNA": {"tested_on": "IFN-β mRNA", "assay": "qRT-PCR of IFN-β mRNA in infected A549 cells", "assay_type": "cell-based, human", "conditions": "A/PR/8/34(H1N1)-infected A549 cells, 24 h p.i., normalized with GAPDH and HAU"}, "2′5′ OAS mRNA": {"tested_on": "2′5′ OAS mRNA", "assay": "qRT-PCR of OAS mRNA in infected A549 cells", "assay_type": "cell-based, human", "conditions": "A/PR/8/34(H1N1)-infected A549 cells, 24 h p.i., normalized with GAPDH and HAU"}, "A(H1N1)pdm09 NS1 [3]": {"tested_on": "A(H1N1)pdm09 NS1", "assay": "Confirmation in the IFN-β luciferase system (flash type)", "assay_type": "cell-based, A(H1N1)pdm09 influenza virus", "conditions": "HEK 293 cells, 50 μM"}, "RNase L mRNA": {"tested_on": "RNase L mRNA", "assay": "qRT-PCR of RNase L mRNA in infected A549 cells", "assay_type": "cell-based, human", "conditions": "A/PR/8/34(H1N1)-infected A549 cells, 24 h p.i., normalized with GAPDH and HAU"}, "in vitro": {"assay": "in vitro", "conditions": "human", "method": "(§1) Cytotoxic concentration to cause death to 50% of viable cells (CC50) was calculated by neutral red uptake assay (NRU) assay [64]. In brief, 1 × 10^4 A549 cells were seeded in 96-well plates and exposed to different concentrations of cpds 157, 164 (25, 50, 100, 200, and 400 μM) or equivalent volumes of DMSO as a control for 48 h. At the end of the exposure time, cells were washed with phosphate-buffered saline (PBS) before being incubated for 3 h in a medium supplemented with neutral red (50 μg/mL). The medium was washed off rapidly with PBS, and cells were incubated for a further 15′ at R.T. in a mixture of 1% acetic acid and 50% ethanol to extract the dye. Absorbance was then measured at 540 nm using a micro-plate reader (Biorad). Neutral red powder was purchased from Sigma-Aldrich. The percentage of cell death for each compound concentration, compared to the corresponding DMSO amount in untreated controls (y-axis), was plotted against increasing cpd concentrations (x-axis). Data were transformed in log scale [x = log(x)], and a linear regression analysis was used to calculate the CC50 concentration."}, "[4]": {"tested_on": "influenza virus A/PR/8/34(H1N1)", "assay": "microbe, parasite or virus in culture", "conditions": "unidentified influenza virus, A549, 24 h"}, "A(H1N1)pdm09 NS1 [5]": {"tested_on": "A(H1N1)pdm09 NS1", "assay": "IFN-β promoter luciferase screening of the diverse library (glow type)", "assay_type": "cell-based, A(H1N1)pdm09 influenza virus", "conditions": "HEK 293 cells; for increase of IFN-β promoter stimulation: 50 μM, 42 h treatment, glow luciferase, single experiment"}, "A549 cells": {"tested_on": "A549 cells", "conditions": "human, 48 h", "method": "as §1"}},
  "data": [
    {"smiles": "Nc1ccccc1C(=O)NCCCc1ccccc1", "note": "[A22]", "values": [
      {"measurement": "EC50", "setting": "NS1", "value": "~0.05", "unit": "µM"}
    ]},
    {"smiles": "CCc1ccc(NC(=O)COC(=O)c2ccc3ccccc3n2)cc1", "note": "[Compound 157]", "values": [
      {"measurement": "fold increase for PKR", "setting": "PKR mRNA", "value": 4.5, "unit": "fold"},
      {"measurement": "therapeutic index (CC50/IC50)", "setting": "[1]", "value": "> 7.8"},
      {"measurement": "reduction of viral replication", "setting": "[1]", "value": 50, "unit": "%"},
      {"measurement": "non-specific activity on the reporter, alone or with IFN inducer, without NS1", "setting": "[2]", "value": "without showing non-specific activities"},
      {"measurement": "fold increase in IFN-β mRNA accumulation", "setting": "IFN-β mRNA", "value": 2.7, "unit": "fold"},
      {"measurement": "fold increase for 2′5′ OAS", "setting": "2′5′ OAS mRNA", "value": 2.3, "unit": "fold"},
      {"measurement": "restoration of the luciferase signal", "setting": "A(H1N1)pdm09 NS1 [3]", "value": "significant restoration of the luciferase signal"},
      {"measurement": "fold increase for RNase L", "setting": "RNase L mRNA", "value": 2.5, "unit": "fold"},
      {"measurement": "CC50 at 48 h", "setting": "in vitro", "value": "> 400", "unit": "µM"},
      {"measurement": "IC50", "setting": "[4]", "value": 51.6, "unit": "µM"},
      {"measurement": "increase of IFN-β promoter stimulation", "setting": "A(H1N1)pdm09 NS1 [5]", "value": "at least 50%"}
    ]},
    {"smiles": "O=C(CSc1nnnn1-c1ccccc1)NCc1ccccc1", "note": "[Compound 164]", "values": [
      {"measurement": "fold increase for PKR", "setting": "PKR mRNA", "value": 1.7, "unit": "fold"},
      {"measurement": "therapeutic index (CC50/IC50)", "setting": "[1]", "value": 3.6},
      {"measurement": "reduction of viral replication", "setting": "[1]", "value": 60, "unit": "%"},
      {"measurement": "non-specific activity on the reporter, alone or with IFN inducer, without NS1", "setting": "[2]", "value": "without showing non-specific activities"},
      {"measurement": "fold increase in IFN-β mRNA accumulation", "setting": "IFN-β mRNA", "value": 3.2, "unit": "fold"},
      {"measurement": "fold increase for 2′5′ OAS", "setting": "2′5′ OAS mRNA", "value": 1.7, "unit": "fold"},
      {"measurement": "restoration of the luciferase signal", "setting": "A(H1N1)pdm09 NS1 [3]", "value": "significant restoration of the luciferase signal"},
      {"measurement": "fold increase for RNase L", "setting": "RNase L mRNA", "value": 2.3, "unit": "fold"},
      {"measurement": "CC50 at 48 h", "setting": "in vitro", "value": "> 150", "unit": "µM"},
      {"measurement": "IC50", "setting": "[4]", "value": 46.4, "unit": "µM"},
      {"measurement": "CC50", "setting": "A549 cells", "value": 169, "unit": "µM"},
      {"measurement": "increase of IFN-β promoter stimulation", "setting": "A(H1N1)pdm09 NS1 [5]", "value": "at least 50%"}
    ]},
    {"smiles": "O=C(NCCCc1ccccc1)c1ccccc1O", "note": "[JJ3297, reference compound]", "values": [
      {"measurement": "EC50", "setting": "NS1", "value": 0.8, "unit": "µM"},
      {"measurement": "IFN-β promoter assay with the reference NS1 inhibitor", "setting": "A(H1N1)pdm09 NS1 [5]; 5 μM", "value": "specificity of the IFN-β promoter assay was also confirmed"}
    ]},
    {"smiles": "O=C(N/N=C/c1ccc2c(c1)CCC2)c1ccccc1O", "note": "[NSC125044]", "values": [
      {"measurement": "EC50", "setting": "NS1", "value": 8, "unit": "µM"}
    ]}
  ]
}
